Source: patent publication US8846331B2, “Asynchronous magnetic bead rotation sensing systems and methods” (The Regents of the University of Michigan, priority 2010, dated 2014)
≈ marks a conversion by molar mass, not a printed value.

Experiments:
Assay type in all cases: cell-based, Escherichia coli
[1] = system: E. coli; assay: AMBR 16-well prototype, growth of E. coli on clusters of magnetic particles (FIG. 3d); settings: 0, 2, 4 and 8 μg/mL antibiotic
Text: FIGS. 3a-f illustrates results from one variation of a multiwell prototype device using a 16-well disposable card. […] FIG. 3b illustrates exemplary results showing raw periodic laser intensity data corresponding to the rotation of the sample for one well; FIG. 3c is an image of a 16 sensor array AMBR system prototype that incorporates low-power lasers and phototransistors to measure rotational data (with black tray that supports the disposable card). FIG. 3d illustrates a graph of antibiotic susceptibility results for averaged and normalized data with E. coli bacteria.
For example, when cell division occurs, a significant portion of the bacteria remain on the surface of the particles. Thus, a more reliable growth response may be detected (as cells are not all shed into the medium). […] Clusters may be readily detected and their rotation more easily optically resolved. […] This allows for response to antibiotics to be measured in a reproducible manner, which makes the technique more clinically relevant. FIGS. 3a-3f illustrate a prototype device that has been used as a proof-of-principle for the rotation of clusters and use of multiwell sample plates. The example shown in FIG. 3a is a 16-well disposable plate. Each well in the plate (which may also be referred to as a “card”) has been treated to contain a single cluster of magnetic particles that rotate as a group. […]

[2] = system: uropathogenic E. coli; assay: AMBR with self-assembled magnetic particle clusters in hanging droplet, MIC measurement; settings: from FIGS. 47a and 47b, rotational period of clusters
Text: FIGS. 46a-c illustrates one example AMBR using a cluster formed in a well having a curved interface (in this example, a hanging droplet). […] This lensing effect may be used to amplify the rotational signal by magnifying the image through the droplet. […] An LED or laser light may be focused by the droplet curvature, magnifying the ‘image’ of the particle cluster a 100-fold. After the magnification, the rotational period can be observed and measured using a photodetector, thus observing a periodic signal corresponding to the rotational period of the cluster. FIG. 46b illustrates the change in cluster shape/size and rotation. The rotational period of the cluster changes accordingly: as the cluster itself expands (e.g., changing shape to have a larger diameter); as bacteria or other analytes attach to the cluster and/or expand/swell; or as the viscosity of the surrounding fluid changes. Viscosity may change if unbound cells divide and increase in number within the well. The rotational period of the cluster can be measured using the Fast Fourier Transform (FFT). The lower graphs in FIG. 46b show a shift in the peak observing the peak location. […]
The self-assembled magnetic particles shown in FIG. 47a-g enabled rapid MIC measurements, and the determined values agreed with values obtained with the traditional microdilution method. […]

[3] = system: uropathogenic E. coli isolate; assay: MIC determination with the Vitek 2 system
[4] = system: E. coli; assay: AMBR multiwell card reader, rotational period growth curves (FIG. 9); settings: FIG. 9, driving frequency 100 Hz
Method: FIG. 9 illustrates the rotational period (in seconds) of rotating magnetic beads with attached E. coli versus time (in minutes) for various concentrations of antibiotic (Gentamicin).
A clinical sample (e.g. blood, urine, etc) may be mixed with a Muller-Hinton (MH) or phosphate buffered saline solution that contains magnetic beads that are coated with antibodies specific to the pathogen of interest. The bacteria and beads are incubated together to allow for ample time to bind and if necessary, population growth of the bacteria. […] This solution (now containing only […]) is then placed into the disposable (preferably multiwell) plate, where the beads are asynchronously rotated in the card reader for detection/identification and antibiotic susceptibility testing, where the minimum inhibitory concentration will be determined. […] Finally, the magnetic particles are rotated in the asynchronous regime and monitored optically to determine cell growth (elongation and/or division). […]
The asynchronous rotational period of the rotating cluster of magnetic particles may be measured using the light modulation that is produced when each laser beam (or other light) passes through the small magnetic bead cluster. […] From this, the rotation rate can be measured by simply tracking the peak-to-peak distance (period) of the modulated intensity. […]

[5] = system: uropathogenic E. coli; assay: AMBR droplet microfluidic platform, small cell-population growth response (AST); settings: for change in rotational period (bacterial growth): monitored minimum one hour
Text: Asynchronous magnetic bead rotation (AMBR) may be performed on hanging droplets and on oil/water emulsions (e.g., droplets of water including the magnetic beads and analyte suspended in oil). For example an AMBR biosensor may use a droplet microfluidic platform that enables single cell and small cell population growth measurements for applications aimed at rapid antimicrobial susceptibility testing (“AST”). […] Growth was observed below the MIC, and no growth was observed above the MIC. A 52% change in the sensor signal (i.e. rotational period) was observed within 15 minutes, thus allowing AST measurements to be performed within minutes.
The microfluidic platform typically forms reproducibly or uniform-sized droplets of aqueous solution (e.g., media) including magnetic particles. […] In this example, the continuous phase consisted of mineral oil with 1% SPAN 80 (v/v). For bead (magnetic particle) characterization experiments, the aqueous phase consisted of PBS solution: PBS with 1% Pluronic F-68 and 0.1% BSA. For biological experiments, the aqueous phase consisted of MH broth solution: MH with 1% Pluronic F-68 and 0.1% BSA, which will be referred to as MH-PB.
In one example, using the microfluidic device described above and in FIGS. 23a and 23b, experiments were conducted on an Olympus IX71 inverted microscope. The microfluidic device was placed inside custom-built electromagnet coils that were integrated on the microscope stage (see, e.g., FIG. 23c). In this example, the rotating magnetic field was generated with a custom LabView program and data acquisition board (NI PCI-6221). The magnetic field driving frequency range was 0.1 Hz to 1 kHz, and the magnetic field strength was 0.9 mT, as measured with a 3-axis magnetic field probe (Senis Gmbh, C-H3A-2m).
Magnetic bead characterization experiments were conducted at 21° C. Single cell experiments were conducted at 21° C., with a 100× oil immersion objective. The magnetic field driving frequency was set at 500 Hz for control and growth experiments. One-minute videos at 15 frames per second (fps) were taken in 5-minute intervals with a digital camera. Small cell-population experiments were conducted at 35° C., with a 40× objective. The microfluidic device was placed on an ITO slide that was heated and maintained at a set temperature, 35+0.2° C. This temperature was monitored by a thermocouple that was coupled to the surface of the slide with a thermally conducting silver paste, Arctic Silver 5 (ARCTIC SILVER). The magnetic field driving frequency for small cell-population control and growth experiments was set at 50 Hz, and continuous videos were taken for a minimum of 5 hours at 2 fps. For small cell-population control and antibiotic response experiments, 1-minute videos were taken at 20 fps in either 5-minute or 20-minute intervals.
As mentioned, movies were captured with a digital camera (Basler, piA640-210 gm). The videos were analyzed using ImageJ (for example, see FIG. 23d). The rotational frequency of the bead complex was determined by monitoring the fluctuations in intensity profile at the target area of interest using ImageJ s ‘plot z-axis profile’ functionality. This intensity plot was analyzed by applying a Fast Fourier Transform (FFT) to the raw ImageJ data in MATLAB. The experimental error in determining the rotational period was designated as the FFT peak's full width at half max (FWHM) of the amplitude signal. […]

CC1(C)S[C@@H]2[C@H](NC(=O)[C@H](N)c3ccccc3)C(=O)N2[C@H]1C(=O)O [ampicillin]
effect on growth of E. coli on clusters (rotational period) [1]: acts as a growth accelerating agent

[H]/N=C(/N)N[C@H]1[C@H](O)[C@@H](O)[C@H](O[C@@H]2O[C@@H](C)[C@](O)(C=O)[C@H]2O[C@@H]2O[C@@H](CO)[C@H](O)[C@@H](O)[C@@H]2NC)[C@@H](N/C(N)=N\[H])[C@@H]1O [streptomycin]
MIC ([2]; Escherichia coli, read-out: MIC measured with AMBR clusters): 8 µg/mL (≈ 13.8 µM) | MIC ([3]; Escherichia coli, isolate of the magnetic particle cluster experiments (FIGS. 47a-b), read-out: clinical (reference) MIC as determined with Vitek 2): 16 µg/mL (≈ 27.5 µM)

gentamicin
minimum inhibitory concentration (MIC) from AMBR growth curves [4]: 2 µg/mL | MIC measured with AMBR clusters [2]: 2 µg/mL | change in rotational period (bacterial growth) ([5]; 0.5 μg/mL gentamicin): increase in rotational period | change in rotational period (bacterial growth) ([5]; 2 μg/mL gentamicin): No substantial change in the rotational period | change in rotational period (bacterial growth) ([5]; 4 μg/mL gentamicin): No substantial change in the rotational period | difference in rotational period between bacteria treated above and below the MIC ([5]; after 15 minutes): 52% | difference in rotational period between bacteria treated above and below the MIC ([5]; within 25 minutes): 100% | MIC as determined with the Vitek 2 system ([3]; isolate of the droplet microfluidic experiments): 1 µg/mL | clinical (reference) MIC as determined with Vitek 2 ([3]; isolate of the magnetic particle cluster experiments (FIGS. 47a-b)): 2 µg/mL
